Data set [1] deals with A431 (WT) human skin epidermoid carcinoma xenograft. As to conditions: for Tumor volume: 100 mpk PO QD. Here is the method:
Each mouse was inoculated subcutaneously at the right flank with H1975 cells (5×10^6), HCC827 (5×10^6) and A431 (5×10^6) respectively in 0.2 ml of medium for tumor development. The treatments were started when the tumor size reached approximately 200-250 mm^3. The testing articles were administrated to the mice according to the predetermined regimen as shown in the experimental design table.
All the procedures related to animal handling, care and the treatment in this study were performed according to the guidelines approved by the Institutional Animal Care and Use Committee (IACUC) following the guidance of the Association for Assessment and Accreditation of Laboratory Animal Care (AAALAC). At the time of routine monitoring, the animals were checked for any effects of tumor growth and treatments on normal behavior such as mobility, food and water consumption (by observation), body weight gain/loss (body weights were measured twice weekly), eye/hair matting and any other abnormal effect. Death and observed clinical signs were recorded on the basis of the numbers of animals within each subset.
The major endpoint was to see if the tumor growth can be delayed or mice can be cured. Tumor size was measured twice weekly in two dimensions using a caliper, and the volume was expressed in mm^3 using the formula: V=0.5 a×b^2 where a and b are the long and short diameters of the tumor, respectively. The tumor size was then used for calculations of both T-C and T/C values. T-C was calculated with T as the median time (in days) required for the treatment group tumors to reach a predetermined size (e.g., 1,000 mm^3), and C as the median time (in days) for the control group tumors to reach the same size. The T/C value (in percent) was an indication of antitumor effectiveness; T and C were the mean volume of the treated and control groups, respectively, on a given day. Tumor weight was measured at the study termination. The T/C value (in percent) was calculated where T and C were the mean tumor weights of the treated and control groups, respectively.

Data set [2] deals with EGFR (pY1068) in H1975 cell (T790M/L858R) (Homo sapiens (Human), UniProt P00533, L858R/T790M). The data set is described as follows: pEGFR sandwich ELISA assay (Examples B-2, B-3, Table 21). The data set is classed as cell-based. As to conditions: for IC50: read-out: IC50 (uM) H1975 T790M/L858R (no EGF stimulation). In general terms: ELISA stands for enzyme-linked immunosorbent assay.

Data set [3] has as its target EGFR (pY1068) in A431 cell (WT) (Homo sapiens (Human), UniProt P00533). The description is as above. It is filed as cell-based. As to conditions: read-out: IC50 (uM) A431 WT (EGF stimulation).
The next data set addresses human wt BTK (Homo sapiens (Human), UniProt Q06187). In words: ClariCELL BTK cell-based assay. The note with it: Cell-based Assays (CAI) IC50(μM) BTK, HEK293 transfected with human wt BTK; 2 hours; repeat runs.
The target in the next data set is human wt JAK3 (Homo sapiens (Human), UniProt P52333). In words: ClariCELL JAK3 cell-based assay. As to conditions: Cell-based Assays (CAI) IC50(μM) JAK3, HEK293 transfected with human wt JAK3; 2 hours; repeat runs.
For the next data set, the target named is JAK3 (Homo sapiens (Human), UniProt P52333). In words: HotSpot kinase assay. The data set is classed as biochemical. As to conditions: Enzymatic Assays; Table 22; unit inferred. The protocol: (§1) Assay Description. In vitro profiling protein kinases was performed using the “HotSpot” assay platform. Briefly, specific kinase/substrate pairs along with required cofactors were prepared in reaction buffer. Compounds were delivered into the reaction, followed 15-20 minutes later by addition of a mixture of ATP (Sigma, St. Louis Mo.) and ^33P ATP (Perkin Elmer, Waltham Mass.) to a final concentration of 10 μM. […] IC50 values and curve fits were obtained using Prism (GraphPad Software).
(§2) Reaction Conditions: Buffer Conditions: 20 mM Hepes (pH 7.5), 10 mM MgCl2, 1 mM EGTA, 0.02% Brij35, 0.02 mg/mL BSA, 0.1 mM Na3VO4, 2 mM DTT, and 1% DMSO. ATP concentration: 10 μM. Reaction Time: 2 hours. […] All kinase reactions were performed at 10 uM ATP. Test concentrations are provided below in molar units (M).

The target of the next data set is BTK (Homo sapiens (Human), UniProt Q06187). In words: HotSpot kinase assay. The note with it: Enzymatic Assays; Table 22; unit inferred. The data set is classed as biochemical. Here is the method:
as §1, §2

A further data set has as its target JAK2 (Homo sapiens (Human), UniProt O60674). The data set is described as follows: HotSpot kinase assay. The data set is classed as biochemical. The note with it: Enzymatic Assays; Table 22; unit inferred. Here is the method: as §1, §2

Values joined by “and” are separate entries in the source; they are usually repeats but may differ in a detail not shown here. Equal entries are not always repeated. Where two headings read alike, the source gives them in different places.

Chain of EGFR (pY1068) in A431 cell (WT) (P00533 25-1210): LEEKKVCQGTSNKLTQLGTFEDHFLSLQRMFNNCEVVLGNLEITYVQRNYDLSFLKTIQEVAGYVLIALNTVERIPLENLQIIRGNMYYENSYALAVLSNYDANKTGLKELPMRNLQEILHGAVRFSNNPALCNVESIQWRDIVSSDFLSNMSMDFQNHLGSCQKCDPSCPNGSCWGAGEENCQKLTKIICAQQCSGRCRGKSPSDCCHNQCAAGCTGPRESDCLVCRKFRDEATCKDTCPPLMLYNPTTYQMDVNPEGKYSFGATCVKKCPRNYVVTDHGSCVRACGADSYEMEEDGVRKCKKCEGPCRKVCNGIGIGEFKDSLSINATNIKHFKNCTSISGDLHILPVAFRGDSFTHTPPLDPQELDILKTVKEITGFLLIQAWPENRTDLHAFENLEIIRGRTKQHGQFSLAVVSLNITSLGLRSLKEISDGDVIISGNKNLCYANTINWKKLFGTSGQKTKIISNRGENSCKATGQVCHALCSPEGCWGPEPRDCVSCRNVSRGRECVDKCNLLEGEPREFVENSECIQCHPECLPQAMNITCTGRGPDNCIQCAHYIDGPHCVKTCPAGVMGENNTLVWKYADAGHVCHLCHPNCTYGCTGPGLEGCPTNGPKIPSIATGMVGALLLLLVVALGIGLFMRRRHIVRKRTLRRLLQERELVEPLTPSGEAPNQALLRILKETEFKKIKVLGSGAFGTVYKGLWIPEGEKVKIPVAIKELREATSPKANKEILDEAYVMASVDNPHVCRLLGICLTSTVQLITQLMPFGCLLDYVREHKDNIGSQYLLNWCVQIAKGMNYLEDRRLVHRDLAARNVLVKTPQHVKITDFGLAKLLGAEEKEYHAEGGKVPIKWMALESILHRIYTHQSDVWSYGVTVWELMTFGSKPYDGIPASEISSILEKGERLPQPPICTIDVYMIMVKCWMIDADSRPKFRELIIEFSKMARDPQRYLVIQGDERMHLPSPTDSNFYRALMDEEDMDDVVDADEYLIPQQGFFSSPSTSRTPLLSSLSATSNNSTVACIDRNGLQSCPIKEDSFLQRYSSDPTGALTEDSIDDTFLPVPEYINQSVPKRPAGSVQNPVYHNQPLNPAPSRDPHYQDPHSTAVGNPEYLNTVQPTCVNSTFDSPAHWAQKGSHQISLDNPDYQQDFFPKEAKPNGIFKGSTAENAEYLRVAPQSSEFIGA
Chain of EGFR (pY1068) in H1975 cell (T790M/L858R) (P00533 25-1210 T790M/L858R): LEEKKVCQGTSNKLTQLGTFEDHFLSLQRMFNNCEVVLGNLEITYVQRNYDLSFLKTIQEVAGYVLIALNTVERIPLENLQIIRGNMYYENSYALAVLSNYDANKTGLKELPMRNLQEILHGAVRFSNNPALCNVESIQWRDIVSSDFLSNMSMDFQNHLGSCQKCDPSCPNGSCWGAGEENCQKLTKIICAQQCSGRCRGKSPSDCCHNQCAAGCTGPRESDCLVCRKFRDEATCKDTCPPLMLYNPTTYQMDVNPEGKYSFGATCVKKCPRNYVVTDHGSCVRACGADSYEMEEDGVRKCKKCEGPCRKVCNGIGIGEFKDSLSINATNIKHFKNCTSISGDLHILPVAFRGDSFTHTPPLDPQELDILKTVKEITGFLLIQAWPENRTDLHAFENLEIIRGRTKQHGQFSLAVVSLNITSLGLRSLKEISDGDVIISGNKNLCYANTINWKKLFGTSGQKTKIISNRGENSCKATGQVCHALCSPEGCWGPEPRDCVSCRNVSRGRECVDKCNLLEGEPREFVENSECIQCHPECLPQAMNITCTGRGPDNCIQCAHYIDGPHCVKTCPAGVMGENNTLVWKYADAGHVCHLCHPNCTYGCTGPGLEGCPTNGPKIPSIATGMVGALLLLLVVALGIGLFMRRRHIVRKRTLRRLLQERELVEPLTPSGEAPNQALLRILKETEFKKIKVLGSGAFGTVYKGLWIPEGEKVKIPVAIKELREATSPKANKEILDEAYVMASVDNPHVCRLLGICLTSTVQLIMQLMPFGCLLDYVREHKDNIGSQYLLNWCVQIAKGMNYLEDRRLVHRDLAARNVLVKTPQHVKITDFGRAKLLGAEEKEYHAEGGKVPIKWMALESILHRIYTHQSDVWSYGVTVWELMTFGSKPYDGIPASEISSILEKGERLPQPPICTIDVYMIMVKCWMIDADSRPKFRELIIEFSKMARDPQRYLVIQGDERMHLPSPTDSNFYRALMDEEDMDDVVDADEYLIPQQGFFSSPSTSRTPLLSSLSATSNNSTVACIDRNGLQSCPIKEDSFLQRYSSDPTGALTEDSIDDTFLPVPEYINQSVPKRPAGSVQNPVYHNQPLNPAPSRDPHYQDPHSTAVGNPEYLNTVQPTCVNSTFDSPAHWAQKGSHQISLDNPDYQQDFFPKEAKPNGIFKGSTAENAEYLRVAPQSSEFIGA
Chain of human wt JAK3 (P52333 whole entry): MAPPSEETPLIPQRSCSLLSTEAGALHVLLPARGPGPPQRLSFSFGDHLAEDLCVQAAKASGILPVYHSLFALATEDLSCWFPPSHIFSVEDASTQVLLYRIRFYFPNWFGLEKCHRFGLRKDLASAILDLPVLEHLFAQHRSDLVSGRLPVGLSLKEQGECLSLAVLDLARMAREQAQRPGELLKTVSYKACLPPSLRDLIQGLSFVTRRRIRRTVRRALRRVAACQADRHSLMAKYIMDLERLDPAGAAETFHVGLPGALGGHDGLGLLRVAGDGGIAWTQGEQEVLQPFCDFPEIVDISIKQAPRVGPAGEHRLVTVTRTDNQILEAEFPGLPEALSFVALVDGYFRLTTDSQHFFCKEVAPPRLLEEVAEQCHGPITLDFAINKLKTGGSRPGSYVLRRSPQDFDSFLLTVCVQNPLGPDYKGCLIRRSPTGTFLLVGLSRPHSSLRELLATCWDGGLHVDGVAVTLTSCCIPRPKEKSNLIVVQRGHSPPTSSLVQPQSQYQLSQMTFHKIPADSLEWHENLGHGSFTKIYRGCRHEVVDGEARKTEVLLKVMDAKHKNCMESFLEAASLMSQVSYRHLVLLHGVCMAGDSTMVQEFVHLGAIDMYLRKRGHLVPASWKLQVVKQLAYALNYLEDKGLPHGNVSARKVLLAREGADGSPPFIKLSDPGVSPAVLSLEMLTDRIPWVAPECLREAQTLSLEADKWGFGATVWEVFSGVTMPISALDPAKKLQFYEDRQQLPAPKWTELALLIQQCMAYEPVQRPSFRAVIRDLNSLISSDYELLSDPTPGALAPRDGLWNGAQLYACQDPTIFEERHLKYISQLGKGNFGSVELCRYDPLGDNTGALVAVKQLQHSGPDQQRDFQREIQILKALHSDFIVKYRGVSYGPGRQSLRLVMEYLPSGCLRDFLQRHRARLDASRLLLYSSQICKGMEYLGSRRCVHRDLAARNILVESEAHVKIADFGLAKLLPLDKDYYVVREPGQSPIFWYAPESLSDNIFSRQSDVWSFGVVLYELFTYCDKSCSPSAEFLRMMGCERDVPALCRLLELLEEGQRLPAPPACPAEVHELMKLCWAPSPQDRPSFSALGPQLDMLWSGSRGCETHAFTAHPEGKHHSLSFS
Chain of human wt BTK (Q06187 whole entry): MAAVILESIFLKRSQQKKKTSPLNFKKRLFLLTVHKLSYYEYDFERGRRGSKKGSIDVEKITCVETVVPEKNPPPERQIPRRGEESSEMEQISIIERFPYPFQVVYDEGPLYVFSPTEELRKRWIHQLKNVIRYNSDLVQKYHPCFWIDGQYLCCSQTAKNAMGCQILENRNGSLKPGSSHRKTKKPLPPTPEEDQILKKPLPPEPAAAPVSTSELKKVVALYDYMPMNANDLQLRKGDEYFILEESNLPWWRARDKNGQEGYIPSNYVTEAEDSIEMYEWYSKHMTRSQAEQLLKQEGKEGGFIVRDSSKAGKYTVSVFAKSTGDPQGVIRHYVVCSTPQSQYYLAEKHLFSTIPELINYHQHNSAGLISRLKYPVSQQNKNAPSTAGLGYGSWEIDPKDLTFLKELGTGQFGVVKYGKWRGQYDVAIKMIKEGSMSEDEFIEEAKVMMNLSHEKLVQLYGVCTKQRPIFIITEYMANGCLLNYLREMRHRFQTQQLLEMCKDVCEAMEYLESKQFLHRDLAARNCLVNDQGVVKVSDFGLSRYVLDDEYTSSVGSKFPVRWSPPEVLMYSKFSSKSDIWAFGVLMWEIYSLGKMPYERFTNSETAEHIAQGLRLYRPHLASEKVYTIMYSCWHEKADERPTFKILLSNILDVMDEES
Chain of JAK3 (P52333 781-1124): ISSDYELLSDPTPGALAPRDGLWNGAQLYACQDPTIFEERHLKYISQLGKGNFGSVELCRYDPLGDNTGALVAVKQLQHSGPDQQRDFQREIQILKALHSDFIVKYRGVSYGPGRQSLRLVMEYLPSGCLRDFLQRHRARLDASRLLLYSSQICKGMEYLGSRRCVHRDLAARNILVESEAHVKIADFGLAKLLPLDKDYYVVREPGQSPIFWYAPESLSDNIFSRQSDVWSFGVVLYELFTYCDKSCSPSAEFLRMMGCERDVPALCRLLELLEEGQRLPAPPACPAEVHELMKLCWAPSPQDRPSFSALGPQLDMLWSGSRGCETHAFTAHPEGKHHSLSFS
Chain of BTK (Q06187 whole entry): as the sequence (Q06187 whole entry) above
Chain of JAK2 (O60674 809-1132): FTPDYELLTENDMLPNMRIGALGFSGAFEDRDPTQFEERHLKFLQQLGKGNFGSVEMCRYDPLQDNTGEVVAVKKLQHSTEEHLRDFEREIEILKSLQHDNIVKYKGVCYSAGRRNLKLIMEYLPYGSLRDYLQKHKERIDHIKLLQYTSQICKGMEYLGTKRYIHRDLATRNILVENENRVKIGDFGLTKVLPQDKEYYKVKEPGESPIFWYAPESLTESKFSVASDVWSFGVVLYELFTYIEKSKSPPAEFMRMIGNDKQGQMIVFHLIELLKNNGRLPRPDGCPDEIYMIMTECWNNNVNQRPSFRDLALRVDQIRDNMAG
From the text for human wt BTK: (§3) Protocol for ClariCELL™ JAK3 and BTK Assays is described below: • HEK293 human embryonic kidney cells were transiently transfected with either human wt BTK, human wt JAK3, or kinase-dead human JAK3 (for JAK3 negative controls).
From the text for human wt JAK3: as §3

Regarding `COc1cc2ncnc(Nc3ccc(F)c(Cl)c3)c2cc1OCCCN1CCOCC1` [Gefitinib], the “T-C (days) at 300 mm^3” value in data set [1] (100 mg/kg po qd) is listed as more than 14 days. Besides, the “T/C (%)” value in data set [1] (100 mg/kg po qd) came to 8.7%. For the same compound, the “Tumor Weight (g) at day 23(14)” value in data set [1] (100 mg/kg po qd) is on record as 0.13 ± 0.03 g. Also, the “Mouse Weight (g) at day 25(14)” value in data set [1] (100 mg/kg po qd, Mean ± SEM) was 21.56 ± 0.51 g. In data set [1] (100 mg/kg po qd, Mean ± SEM, Table 16), the “Tumor Size (mm^3) at day 25(14)” value was determined as 154 ± 33 mm^3. For the same compound, the Tumor volume turned out to be 239.83 ± 23.30 mm^3 in data set [1] (day 11, Mean ± SEM); 139.70 ± 26.94 mm^3 in data set [1] (day 18, Mean ± SEM); 139.70 ± 22.07 mm^3 in data set [1] (day 21, Mean ± SEM); 154.79 ± 32.62 mm^3 in data set [1] (day 25, Mean ± SEM).

In the case of `C=CC(=O)Nc1cccc(Oc2nc(Nc3ccc(N4CCN(C)CC4)nc3)nc3c2ccn3CO)c1` [Compound 5, N-(3-(7-(hydroxymethyl)-2-(6-(4-methylpiperazin-1-yl)pyridin-3-ylamino)-7H-pyrrolo[2,3-d]pyrimidin-4-yloxy)phenyl)acrylamide], in data set [2], the “Selectivity A431/H1975” value came out at 113.17 and the IC50 came out at 0.243 µM. In addition, the IC50 in data set [3] stood at 27.5 µM.

Consider `C=CC(=O)Nc1cccc(Oc2nc(Nc3ccc(N4CCN(C)CC4)nc3)nc3[nH]ccc23)c1` [Compound 2, N-(3-(2-(6-(4-methylpiperazin-1-yl)pyridin-3-ylamino)-7H-pyrrolo[2,3-d]pyrimidin-4-yloxy)phenyl)acrylamide], for which the IC50 is 0.012 µM and 0.059 µM at human wt BTK; 0.2 µM and 0.36 µM against human wt JAK3; 0.001 µM in data set [2]; 0.3 µM in data set [3]; 0.0365 nM against JAK3; 0.362 nM against BTK. On JAK2, this compound gave an IC50 of 2060 nM. Besides, the “Selectivity A431/H1975” value in data set [2] turned out to be 300.00.

Regarding `C=CC(=O)Nc1cccc(Oc2nc(Nc3ccc(N4CCN(C)CC4)c(F)c3)nc3c2ccn3CO)c1` [Compound 6, N-(3-(2-(3-fluoro-4-(4-methylpiperazin-1-yl)phenylamino)-7-(hydroxymethyl)-7H-pyrrolo[2,3-d]pyrimidin-4-yloxy)phenyl)acrylamide], the “Selectivity A431/H1975” value in data set [2] was found to be 232.91. Further, the IC50 in data set [2] came out at 0.0398 µM; in data set [3], 9.27 µM.

With `C=CC(=O)Nc1cccc(Oc2nc(Nc3ccc(N4CCN(C)CC4)cc3)nc3c2ccn3CO)c1` [Compound 4, N-(3-((7-(hydroxymethyl)-2-((4-(4-methylpiperazin-1-yl)phenyl)amino)-7H-pyrrolo[2,3-d]pyrimidin-4-yl)oxy)phenyl)acrylamide], in data set [2], the “Selectivity A431/H1975” value stood at 162.69 and the IC50 was determined as 0.067 µM. Moreover, the IC50 in data set [3] was 10.9 µM.

As for `C=CC(=O)Nc1cccc(Oc2nc(Nc3ccc(NC4CN(CCF)C4)cc3OC)nc3[nH]ccc23)c1` [Compound 34, N-(3-(2-(4-(1-(2-fluoroethyl)azetidin-3-ylamino)-2-methoxyphenylamino)-7H-pyrrolo[2,3-d]pyrimidin-4-yloxy)phenyl)acrylamide], in data set [2], the “Selectivity A431/H1975” value came out at 92.95 and the IC50 is 0.0217 µM. The IC50 in data set [3] was determined as 2.02 µM.

On to `C=CC(=O)Nc1cccc(Oc2nc(Nc3ccc(N4CCN(C)CC4)cc3)nc3c2ccn3CCF)c1` [Compound 7, N-(3-(7-(2-fluoroethyl)-2-(4-(4-methylpiperazin-1-yl)phenylamino)-7H-pyrrolo[2,3-d]pyrimidin-4-yloxy)phenyl)acrylamide], for which the IC50 in data set [2] is 12.4 µM; in data set [3], more than 20 µM.

Values taken from US9586965B2, “Pyrrolo[2,3-d]pyrimidine compounds as inhibitors of protein kinases” (ACEA BIOSCIENCES INC., priority 2012, dated 2017).
